System: CTL F2
Test: Peptide recognition assay: 51Cr release lysis by CTL F2 of peptide-pulsed autologous EBV-B cells
Type: cell-based, human
Settings: for recognition by CTL F2 of targets pulsed with peptides modified at the C-terminus (FIG. 3C): very high and most probably not physiological concentration of peptide; for recognition by CTL F2 of targets pulsed with peptides modified at the C-terminus (FIG. 3C) / recognition by CTL F2 of peptides of different lengths (peptide titration, FIG. 3B): E:T 5:1, 4 h; for EC50: CTL F2, E:T 5:1, 4 h chromium release (FIG. 3B), read-out: peptide concentration giving half maximal lysis of autologous EBV-B target cells; for recognition by CTL F2 of peptides of different lengths (peptide titration, FIG. 3B): autologous EBV-B targets, 3-fold peptide dilutions, HPLC purified peptides; for lysis by CTL F2 of autologous EBV-B cells incubated with peptide (first screening of 16 amino-acid long peptides, FIG. 3A): 1 μg/ml of each peptide, E:T ratio 5:1, chromium release after 4 h

SESLKMIFI (listed as Homo sapiens) [nonapeptide with C-terminal G replaced by I]
recognition by CTL F2 of targets pulsed with peptides modified at the C-terminus (FIG. 3C): recognized

SESLKMIF
EC50: 1 nM | recognition by CTL F2 of peptides of different lengths (peptide titration, FIG. 3B): scored positive

SESLKMIFGI
EC50: 1 nM | recognition by CTL F2 of peptides of different lengths (peptide titration, FIG. 3B): scored positive

SESLKMIFL (listed as Homo sapiens) [nonapeptide with C-terminal G replaced by L]
recognition by CTL F2 of targets pulsed with peptides modified at the C-terminus (FIG. 3C): recognized

SESLKMIFGIDVKEVD (listed as Homo sapiens) [16-mer MAGE-A4 peptide, amino acids 156-171]
lysis by CTL F2 of autologous EBV-B cells incubated with peptide (first screening of 16 amino-acid long peptides, FIG. 3A): scored positive

FPVIFGKASESLKMIF (listed as Homo sapiens) [16-mer MAGE-A4 peptide, amino acids 148-163]
lysis by CTL F2 of autologous EBV-B cells incubated with peptide (first screening of 16 amino-acid long peptides, FIG. 3A): scored positive

SESLKMIFG (listed as Homo sapiens) [MAGE-A4 nonapeptide]
recognition by CTL F2 of peptides of different lengths (peptide titration, FIG. 3B): not recognized
